Measurements taken from patent US20110003883A1, “ALLOSTERIC TRANS-SPLICING GROUP I RIBOZYME WHOSE ACTIVITY OF TARGET-SPECIFIC RNA REPLACEMENT IS CONTROLLED BY THEOPHYLLINE” (Industry-Academic Cooperation Foundation, Dankook University, priority 2008, published 2011).

Key:
HT-29 cells = test: MTT assay in HT-29 cells (hTERT+); format: cell-based, human; conditions: HT-29 cells with Ad-TheoRib-TK
Description: (§1) Cells were seeded in a 96 well plate (TPP) for 1 day, and then infected with Ad-TK (an adenoviral vector expressing a TK gene under the control of a CMV promoter), Ad-Rib-TK, Ad-TheoRib-TK, and Ad-LacZ (an adenoviral vector expressing a LacZ gene under the control of a CMV promoter) adenoviruses, respectively. The used media supplemented with GCV and a chemical (theophylline or caffeine) were exchanged with the same new media from every second to fifth day from the day after the virus infection. The HT-29 strain was seeded at a cell number of 3×10^3/well, the HepG2 strain was seeded at a cell number of 3×10^3/well, the Capan-1 strain was seeded at a cell number of 5×10^3/well, and the IMR90 strain was seeded at a cell number of 5×10^3/well. 5 days after the seeding of the strains, CellTiter 96® AQueous ONE Solution Cell Proliferation Assay (Promega) was added to each cell medium so that it amounted to 20% of the total medium, and the 96 wells were treated with 100 μl of resulting cell medium per well, and measured at a wavelength of 490 nm, using a Microplate reader model 550 (BioRad), to observe cell viability of the cells. […]

HepG2 cells = test: MTT assay in HepG2 cells (hTERT+); format: cell-based, human; conditions: HepG2 cells with Ad-TheoRib-TK
Description: as §1

Capan-1 cells = test: MTT assay in Capan-1 cells (hTERT+); format: cell-based, human; conditions: Capan-1 cells with Ad-TheoRib-TK
Description: as §1

theophylline aptamer = conditions: cited from earlier work

Row | SMILES | optimum condition for allosterically induced gene expression: concentration (HT-29 cells) | optimum condition for allosterically induced gene expression: concentration (HepG2 cells) | optimum condition for allosterically induced gene expression: concentration (Capan-1 cells) | affinity to the theophylline aptamer, lower than theophylline (theophylline aptamer)
1 | Nc1nc(O)c2ncn(COC(CO)CO)c2n1 [GCV, ganciclovir] | 10 µM | 10 µM | 50 µM | 
2 | Cn1c(=O)c2c(ncn2C)n(C)c1=O [caffeine] |  |  |  | 1000 times
3 | Cn1c(=O)c2[nH]cnc2n(C)c1=O [theophylline] | 100 µM | 10 µM | 500 µM | 
